According to patent publication US20170333391A1, “METHOD FOR DELAYING THE ONSET OF PULMONARY FIBROSIS OR TREATING PULMONARY FIBROSIS” (EVERFRONT BIOTECH INC., priority 2016, published 2017):

Experiments:
TGF-β = TGF-β mRNA expression in NHLF, Q-PCR (3-2); assay type: cell-based, human; details: 24 hours
Protocol: (§1) Normal Human lung fibroblasts (NHLF) were seeded into 6-well plate at a density of 10^5 cells/well, comprising a control group and five experimental groups (6 wells in total). The cells were cultured until the next day, and then the mediums were removed. Each group was respectively treated under the following conditions to conduct follow-up experiments: • (1) Control group: cells were cultured in a FGM-2 medium containing 1% serum for 24 hours; • (2) Group α: cells were cultured in a FGM-2 medium containing 1% serum and compound (1) (5 μg/ml) for 24 hours; • (3) Group β: cells were cultured in a FGM-2 medium containing 1% serum and compound (1) (10 μg/ml) for 24 hours; • (4) Group γ: cells were cultured in a F-12K medium containing 1% serum and H2O2 (0.1 mM) for 24 hours; • (5) Group δ: cells were cultured in a F-12K medium containing 1% serum, H2O2 (0.1 mM) and compound (1) (5 μg/ml) for 24 hours; and • (6) Group ε: cells were cultured in a F-12K medium containing 1% serum, H2O2 (0.1 mM) and compound (1) (10 μg/ml) for 24 hours.
(§2) Thereafter, the total RNA of cells taken from each group were extracted, and then reverse transcription was conducted on the total RNA by using a QuantiTect Reverse Transcription Kit to obtain cDNA therefrom. A Q-PCR was then conducted on the cDNA to analyze the mRNA expression levels of genes such as α-SMA and TGF-β, wherein GAPDH gene served as an internal control. The results of the control group served as the basis for calculating the relative expression levels of the other groups.

TGF-β protein [1] = assay: TGF-β protein in mouse pulmonary tissue, western blotting; assay type: in vivo, mice; details: compared to oil group
Protocol: 24 C57B/L6 mice (age: four weeks) were separated into four groups (6 mice in each group). […]
The samples of mice pulmonary tissue provided by Example 7 and preserved at −20° C. were removed from storage, and then ground in liquid nitrogen. […] The expressions of TGF-β protein, smad3 protein and surfactant C in the samples of each group were measured with western blotting, wherein the actin served as an internal control.

α-SMA = α-SMA mRNA expression in NHLF, Q-PCR (3-2); assay type: cell-based, human; details: 24 hours
Protocol: as §1, §2

TGF-β protein [2] = assay: TGF-β protein expression in NHLF, western blotting (3-1); assay type: cell-based, human
Protocol: Normal Human lung fibroblasts (NHLF) were seeded into 6 cm culture dishes at a density of 2×10^5 cells/dish, comprising a control group and six experimental groups (7 dishes in total). The cells were cultured until the next day, and then the mediums were removed. Each group was respectively treated under the following conditions to conduct follow-up experiments: • (1) Control group: cells were cultured in a FGM-2 medium containing 10% serum for 36 hours; • (2) Group i: cells were cultured in a FGM-2 medium containing 1% serum for 36 hours; • (3) Group ii: cells were firstly cultured in a FGM-2 medium containing 1% serum for 12 hours, and then compound (1) was added into the medium to provide a final concentration of 15 μg/ml; thereafter, the cells were cultured for another 24 hours; • (4) Group iii: cells were firstly cultured in a FGM-2 medium containing 1% serum for 12 hours, and then compound (1) was added into the medium to provide a final concentration of 25 μg/ml; thereafter, the cells were cultured for another 24 hours; • (5) Group iv: cells were cultured in a FGM-2 medium containing 1% serum and TGF-β1 (5 ng/ml) for 36 hours; • (6) Group v: cells were firstly cultured in a FGM-2 medium containing 1% serum and TGF-β1 (5 ng/ml) for 12 hours, and then compound (1) was added into the medium to provide a final concentration of 15 μg/ml; thereafter, the cells were cultured for another 24 hours; and • (7) Group vi: cells were firstly cultured in a FGM-2 medium containing 1% serum and TGF-β1 (5 ng/ml) for 12 hours, and then compound (1) was added into the medium to provide a final concentration of 25 μg/ml; thereafter, the cells were cultured for another 24 hours.
Thereafter, the proteins in the cells of each group were extracted, and the expressions of BMP-7 protein, TGF-β protein and α-SMA protein in the NHLF cells of each group were measured with western blotting, wherein the β-actin served as the internal control. The results of the control group served as the basis for calculating the relative expression levels of the other groups.

[3] = Group α: mRNA, FGM-2 medium 1% serum + compound (1) 5 μg/ml, control group = 1
[4] = Group β: mRNA, FGM-2 medium 1% serum + compound (1) 10 μg/ml, control group = 1

CCCC=C1OC(=O)c2ccccc21 [compound (1)]
Relative expression level (fold) TGF-β (TGF-β; [3]): 0.61 fold
Relative expression level (fold) TGF-β (TGF-β; [4]): 0.12 fold
Relative expression level (fold) TGF-β (TGF-β; Group δ: mRNA, F-12K medium 1% serum + H2O2 0.1 mM + compound (1) 5 μg/ml, control group = 1, H2O2-only group γ = 0.34): 0.42 fold
Relative expression level (fold) TGF-β (TGF-β; Group ε: mRNA, F-12K medium 1% serum + H2O2 0.1 mM + compound (1) 10 μg/ml, control group = 1, H2O2-only group γ = 0.34): 0.04 fold
expression level of TGF-β protein in pulmonary tissue (TGF-β protein [1]; High-dose group, compound (1) 50 mg/kg orally daily 30 days): significantly lower
expression level of TGF-β protein in pulmonary tissue (TGF-β protein [1]; Low-dose group, compound (1) 10 mg/kg orally daily 30 days): significantly lower
Relative expression level (fold) α-SMA (α-SMA; [3]): 0.46 fold
Relative expression level (fold) α-SMA (α-SMA; [4]): 0.64 fold
Relative expression level (fold) α-SMA (α-SMA; Group δ: mRNA, F-12K medium 1% serum + H2O2 0.1 mM + compound (1) 5 μg/ml, control group = 1, H2O2-only group γ = 0.92): 0.56 fold
Relative expression level (fold) α-SMA (α-SMA; Group ε: mRNA, F-12K medium 1% serum + H2O2 0.1 mM + compound (1) 10 μg/ml, control group = 1, H2O2-only group γ = 0.92): 0.37 fold
Relative expression level (fold) TGF-β protein (TGF-β protein [2]; Group ii: 1% serum 12 h, then compound (1) 15 μg/ml 24 h, no TGF-β1, 10% serum control = 1, 1% serum group i = 0.66): 0.63 fold
Relative expression level (fold) TGF-β protein (TGF-β protein [2]; Group iii: 1% serum 12 h, then compound (1) 25 μg/ml 24 h, no TGF-β1, 10% serum control = 1, 1% serum group i = 0.66): 0.52 fold
Relative expression level (fold) TGF-β protein (TGF-β protein [2]; Group v: 1% serum + TGF-β1 5 ng/ml 12 h, then compound (1) 15 μg/ml 24 h, 10% serum control = 1, TGF-β1-only group iv = 0.80): 0.79 fold
Relative expression level (fold) TGF-β protein (TGF-β protein [2]; Group vi: 1% serum + TGF-β1 5 ng/ml 12 h, then compound (1) 25 μg/ml 24 h, 10% serum control = 1, TGF-β1-only group iv = 0.80): 0.59 fold
